Measurements taken from patent US20220323406A1, “METHODS AND COMPOSITIONS FOR DIFFERENTIATING STEM CELLS” (Massachusetts Institute of Technology, priority 2019, published 2022).

How the values were obtained:
[1] = system: ENR+CD organoids (ISC to Paneth cell differentiation); assay: Primary screen: basal (non-stimulated) lysozyme secretion LYZ.NS, 2.5-D 384-well ENR+CD organoid differentiation; type: cell-based, mouse; conditions: primary screen; for Z.LYZ.NS: standard z score
Excerpt: (§1) High-throughput screening.

[2] = system: ENR+CD organoids (ISC to Paneth cell differentiation); assay: Primary screen: CCh-stimulated lysozyme secretion LYZ.S, 2.5-D 384-well ENR+CD organoid differentiation; type: cell-based, mouse; conditions: primary screen
Excerpt: as §1

ENR+CD organoids = assay: Primary screen: ATP (CellTiter-Glo 3D, CTG) cell number/viability, 2.5-D 384-well ENR+CD organoids; conditions: primary screen; for Z.CTG: standard z score;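 as to all read-outs here: compounds given at plating and again on day 3 over a 6-day differentiation from ENR+CV stem-cell-enriched precursors, ATP measured on day 6, plate median as control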
[3] = dose 0.08 uM, FC relative to plate median
[4] = dose 0.40 uM, FC relative to plate median
[5] = dose 2.00 uM, FC relative to plate median
[6] = dose 10.00 uM, FC relative to plate median
[7] = dose 0.08 uM, FC vs plate median
[8] = dose 0.40 uM, FC vs plate median
[9] = dose 2.00 uM, FC vs plate median
[10] = dose 10.00 uM, FC vs plate median

| Compound | Dose.FC.LYZ.NS [1, 3] | Z.LYZ.NS ([1]; dose 0.08 uM) | Dose.FC.LYZ.NS [1, 4] | Z.LYZ.NS ([1]; dose 0.40 uM) | Dose.FC.LYZ.NS [1, 5] | Z.LYZ.NS ([1]; dose 2.00 uM) | Dose.FC.LYZ.NS [1, 6] | Z.LYZ.NS ([1]; dose 10.00 uM) | Dose.FC.LYZ.S [2, 3] | Dose.FC.LYZ.S [2, 4] | Dose.FC.LYZ.S [2, 5] | Dose.FC.LYZ.S [2, 6] | Dose.FC.CTG (ENR+CD organoids; [3]) | Z.CTG (ENR+CD organoids; dose 0.08 uM) | Dose.FC.CTG (ENR+CD organoids; [4]) | Z.CTG (ENR+CD organoids; dose 0.40 uM) | Dose.FC.CTG (ENR+CD organoids; [5]) | Z.CTG (ENR+CD organoids; dose 2.00 uM) | Dose.FC.CTG (ENR+CD organoids; [6]) | Z.CTG (ENR+CD organoids; dose 10.00 uM) | other results |
| --- | --- | --- | --- | --- | --- | --- | --- | --- | --- | --- | --- | --- | --- | --- | --- | --- | --- | --- | --- | --- | --- |
| SN-38 | −0.275 log2 fold change | −2.391 | −0.288 log2 fold change | −2.505 | −0.305 log2 fold change | −2.655 | −0.299 log2 fold change | −2.606 | −0.419 log2 fold change | −0.402 log2 fold change | −0.391 log2 fold change | −0.404 log2 fold change | −0.720 log2 fold change | −1.720 | −1.091 log2 fold change | −2.606 | −1.226 log2 fold change | −2.929 | −1.166 log2 fold change | −2.785 |  |
| Cc1c(Cc2ccc3ccccc3n2)c2cc(F)ccc2n1CC(=O)O [OC000459] |  | 0.416 |  | 0.461 |  | 0.507 |  | 0.287 |  |  |  |  |  |  |  |  |  |  |  |  | Dose.FC.LYZ.NS [1, 7]: 0.048 log2 fold change; Dose.FC.LYZ.NS [1, 8]: 0.053 log2 fold change; Dose.FC.LYZ.NS [1, 9]: 0.058 log2 fold change; Dose.FC.LYZ.NS [1, 10]: 0.033 log2 fold change; Dose.FC.LYZ.S [2, 7]: 0.090 log2 fold change; Dose.FC.LYZ.S [2, 8]: 0.199 log2 fold change; Dose.FC.LYZ.S [2, 9]: 0.130 log2 fold change; Dose.FC.LYZ.S [2, 10]: 0.051 log2 fold change; Dose.FC.CTG (ENR+CD organoids; [7]): 0.077 log2 fold change; Dose.FC.CTG (ENR+CD organoids; [8]): −0.065 log2 fold change; Dose.FC.CTG (ENR+CD organoids; [9]): 0.088 log2 fold change; Dose.FC.CTG (ENR+CD organoids; [10]): 0.088 log2 fold change |
| O=C(Nc1ccncc1)c1cc([N+](=O)[O-])ccc1Cl [T0070907] | 0.010 log2 fold change | 0.084 | −0.003 log2 fold change | −0.029 | 0.043 log2 fold change | 0.373 | −0.218 log2 fold change | −1.897 | −0.005 log2 fold change | −0.001 log2 fold change | 0.081 log2 fold change | −0.312 log2 fold change | 0.112 log2 fold change | 0.267 | 0.026 log2 fold change | 0.062 | 0.050 log2 fold change | 0.119 | −0.756 log2 fold change | −1.806 |  |
| CN(c1ncccc1CNc1nc(Nc2ccc3c(c2)CC(=O)N3)ncc1C(F)(F)F)S(C)(=O)=O [PF-562271] |  | −0.589 |  | −1.325 |  | −2.034 |  | −2.184 |  |  |  |  |  | −0.273 |  | −0.518 |  | −1.311 |  | −2.266 | Dose.FC.LYZ.NS [1, 7]: −0.068 log2 fold change; Dose.FC.LYZ.NS [1, 8]: −0.152 log2 fold change; Dose.FC.LYZ.NS [1, 9]: −0.234 log2 fold change; Dose.FC.LYZ.NS [1, 10]: −0.251 log2 fold change; Dose.FC.LYZ.S [2, 7]: −0.088 log2 fold change; Dose.FC.LYZ.S [2, 8]: −0.214 log2 fold change; Dose.FC.LYZ.S [2, 9]: −0.332 log2 fold change; Dose.FC.LYZ.S [2, 10]: −0.414 log2 fold change; Dose.FC.CTG (ENR+CD organoids; [7]): −0.114 log2 fold change; Dose.FC.CTG (ENR+CD organoids; [8]): −0.217 log2 fold change; Dose.FC.CTG (ENR+CD organoids; [9]): −0.549 log2 fold change; Dose.FC.CTG (ENR+CD organoids; [10]): −0.949 log2 fold change |
| Cc1nnc(C(=O)NC(C)(C)c2nc(C(=O)NCc3ccc(F)cc3)c(O)c(=O)n2C)o1 [Raltegravir (MK-0518)] | 0.187 log2 fold change | 1.627 | 0.035 log2 fold change | 0.302 | 0.029 log2 fold change | 0.254 | 0.042 log2 fold change | 0.366 | 0.137 log2 fold change | 0.037 log2 fold change | 0.122 log2 fold change | 0.183 log2 fold change | 0.108 log2 fold change | 0.258 | 0.094 log2 fold change | 0.224 | 0.197 log2 fold change | 0.471 | 0.170 log2 fold change | 0.407 |  |
